From ChEMBL document CHEMBL1770082, “Probing the isoprenylcysteine carboxyl methyltransferase (Icmt) binding pocket: sulfonamide modified farnesyl cysteine (SMFC) analogs as Icmt inhibitors” (Bioorg Med Chem Lett, 2011) come the findings set out here.

The structures appear in SMILES notation.

The target of test [1] is T1, Protein-S-isoprenylcysteine O-methyltransferase (Homo sapiens, UniProt O60725). Particulars: at 10 µM.
Description: Inhibition of human ICMT at 10 uM incubated with N-Acetyl-S-farnesyl-L-cysteine substrate for 5 mins followed by addition of [14C]-SAM measured after 30 mins by liquid scintillation counting
The target in test [2] is T1, Protein-S-isoprenylcysteine O-methyltransferase. Put plainly: Inhibition of human ICMT incubated with N-Acetyl-S-farnesyl-L-cysteine substrate for 5 mins followed by addition of [14C]-SAM measured after 30 mins by liquid scintillation counting.
For test [3] the target is unchanged. Briefly: Inhibition of human ICMT at 10uM incubated with N-Acetyl-S-farnesyl-L-cysteine substrate for 5 mins followed by addition of [14C]-SAM measured after 30 mins by liquid scintillation counting.

T1 sequence (O60725 whole entry): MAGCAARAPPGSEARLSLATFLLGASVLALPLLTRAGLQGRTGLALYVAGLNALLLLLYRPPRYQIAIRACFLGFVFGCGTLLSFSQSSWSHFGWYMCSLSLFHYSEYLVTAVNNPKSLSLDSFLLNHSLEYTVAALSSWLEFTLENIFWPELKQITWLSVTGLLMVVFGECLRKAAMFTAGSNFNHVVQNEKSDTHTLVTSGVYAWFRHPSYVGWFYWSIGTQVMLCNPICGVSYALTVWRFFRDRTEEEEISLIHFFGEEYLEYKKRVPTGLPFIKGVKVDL

Broadly, the inhibition is the relative decrease from the control value, in per cent. A lower inhibition goes with a response near the control. As usually defined, the IC50 is the concentration at which inhibition is half-maximal. Turning to `CC(C)=CCC/C(C)=C/CC/C(C)=C/CSC[C@H](NS(=O)(=O)c1cccc([N+](=O)[O-])c1)C(=O)O`, the inhibition in test [1] was more than 55%. The compound further showed an IC50 in test [2] of 13.4 µM.

The compound `CC(C)=CCC/C(C)=C/CSC[C@H](NS(=O)(=O)c1cccc([N+](=O)[O-])c1)C(=O)O` had an inhibition in test [1] of 18%.

For `COc1ccc(S(=O)(=O)N[C@@H](CSC/C=C(\C)CC/C=C(\C)CCC=C(C)C)C(=O)O)c(OC)c1`, in test [1], the inhibition was 45%. `CC(C)=CCC/C(C)=C/CC/C(C)=C/CSC[C@H](NS(=O)(=O)c1ccccc1)C(=O)O`: the inhibition in test [1] was found to be 45%. The compound also registered an IC50 in test [2] of 17 µM. `COC(=O)[C@H](CSC/C=C(\C)CC/C=C(\C)CCC=C(C)C)NS(=O)(=O)c1cccs1`: the inhibition in test [3] was 10%. For `CCCCCCCCS(=O)(=O)N[C@@H](CSC/C=C(\C)CC/C=C(\C)CCC=C(C)C)C(=O)O`, the inhibition in test [1] was less than 45%.

In test [1], `COc1ccc(S(=O)(=O)N[C@@H](CSC/C=C(\C)CC/C=C(\C)CCC=C(C)C)C(=O)O)cc1` gave an inhibition of less than 45%. Still for that read-out and setting: as for `CC(C)=CCC/C(C)=C/CC/C(C)=C/CSC[C@H](NS(=O)(=O)c1c(C)c(C)c(C)c(C)c1C)C(=O)O`, the figure is less than 45%; as for `CC(C)=CCC/C(C)=C/CC/C(C)=C/CSC[C@H](NS(=O)(=O)c1ccc2ccccc2c1)C(=O)O`, 45%.

In test [1], `CC(C)=CCC/C(C)=C/CC/C(C)=C/CSC[C@H](NS(=O)(=O)c1ccc(F)cc1F)C(=O)O` had an inhibition of 45%.

Compound `CC(C)=CCC/C(C)=C/CC/C(C)=C/CSC[C@H](NS(=O)(=O)c1cccc2c(N(C)C)cccc12)C(=O)O` returned an inhibition in test [1] of 45%. The same compound came in with an IC50 in test [2] of 11.6 µM. On to `CC(=O)c1ccc(S(=O)(=O)N[C@@H](CSC/C=C(\C)CC/C=C(\C)CCC=C(C)C)C(=O)O)cc1`, for which the inhibition in test [1] is 45%.

The compound `CC(C)=CCC/C(C)=C/CC/C(C)=C/CSC[C@H](NS(=O)(=O)c1ccc(C(C)C)cc1)C(=O)O` returned an inhibition in test [1] of less than 45%. The same measure, in the same setting: as for `CC(C)=CCC/C(C)=C/CC/C(C)=C/CSC[C@H](NS(=O)(=O)c1ccc(-c2ccccc2)cc1)C(=O)O`, the figure is less than 45%; as for `CC(C)=CCC/C(C)=C/CC/C(C)=C/CSC[C@H](NS(=O)(=O)c1ccc(C(C)(C)C)cc1)C(=O)O`, 45%; as for `CC(C)=CCC/C(C)=C/CSC[C@H](NS(=O)(=O)c1ccc(F)cc1)C(=O)O`, 23%. Take `CC(C)=CCC/C(C)=C/CC/C(C)=C/CSC[C@H](NS(=O)(=O)c1ccc(F)cc1)C(=O)O`: the inhibition in test [1] was more than 55%. Moreover, it took 15.5 µM to reach half-maximal inhibition in test [2] (IC50). For `CC(C)=CCC/C(C)=C/CC/C(C)=C/CSC[C@H](NS(=O)(=O)c1c(C(C)C)cc(C(C)C)cc1C(C)C)C(=O)O`, the inhibition in test [1] was less than 45%. `CC(C)=CCC/C(C)=C/CC/C(C)=C/CSC[C@H](NS(=O)(=O)c1ccc(Br)s1)C(=O)O` returned an inhibition in test [1] of less than 45%. The same measure, in the same setting: as for `CC(C)=CCC/C(C)=C/CC/C(C)=C/CSC[C@H](NS(=O)(=O)c1ccccc1C(F)(F)F)C(=O)O`, the figure is less than 45%; as for `CC(C)=CCC/C(C)=C/CC/C(C)=C/CSC[C@H](NS(=O)(=O)c1ccccc1Br)C(=O)O`, less than 45%. Same read-out and setting: to `CCCc1ccc(S(=O)(=O)N[C@@H](CSC/C=C(\C)CC/C=C(\C)CCC=C(C)C)C(=O)O)cc1` belongs less than 45%; to `CC(C)=CCC/C(C)=C/CC/C(C)=C/CSC[C@H](NS(=O)(=O)c1ccccc1[N+](=O)[O-])C(=O)O`, 45%. Still for that read-out and setting: to `CC(C)=CCC/C(C)=C/CC/C(C)=C/CSC[C@H](NS(=O)(=O)c1cccc2cccnc12)C(=O)O` belongs 45%. `CC(C)=CCC/C(C)=C/CSC[C@H](NS(=O)(=O)c1ccccc1)C(=O)O` yielded an inhibition in test [1] of 22%. The same measure, in the same setting: to `CC(C)=CCC/C(C)=C/CC/C(C)=C/CSC[C@H](NS(=O)(=O)c1ccc(Cl)cc1F)C(=O)O` belongs less than 45%.

For the compound `COc1ccc(S(=O)(=O)N[C@@H](CSC/C=C(\C)CC/C=C(\C)CCC=C(C)C)C(=O)O)cc1OC`, the inhibition in test [1] is more than 55%. Still for that read-out and setting: as for `CC(C)=CCC/C(C)=C/CC/C(C)=C/CSC[C@H](NS(=O)(=O)Cc1ccccc1)C(=O)O`, the figure is less than 45%. Same read-out and setting: as for `CC(C)=CCC/C(C)=C/CC/C(C)=C/CSC[C@H](NS(=O)(=O)C[C@@]12CC[C@H](CC1=O)C2(C)C)C(=O)O`, the figure is 45%; as for `C=Cc1ccc(S(=O)(=O)N[C@@H](CSC/C=C(\C)CC/C=C(\C)CCC=C(C)C)C(=O)O)cc1`, less than 45%; as for `CCCCCCSC[C@H](NS(=O)(=O)c1cccc([N+](=O)[O-])c1)C(=O)O`, 17%. In the case of `CCCCCCCCCCCSC[C@H](NS(=O)(=O)c1cccc([N+](=O)[O-])c1)C(=O)O`, the inhibition in test [1] was found to be 32%. `COc1ccc(S(=O)(=O)N[C@@H](CSC/C=C(\C)CC/C=C(\C)CCC=C(C)C)C(=O)O)c([N+](=O)[O-])c1` showed an inhibition in test [1] of less than 45%. Still for that read-out and setting: as for `CC(=O)Nc1ccc(S(=O)(=O)N[C@@H](CSC/C=C(\C)CC/C=C(\C)CCC=C(C)C)C(=O)O)cc1`, the figure is less than 45%.

As to `CC(C)=CCC/C(C)=C/CC/C(C)=C/CSC[C@H](NS(=O)(=O)c1cccs1)C(=O)O`, in test [1], the inhibition is more than 55%. In test [2], this compound gave an IC50 of 8.8 µM. Take `CC(C)=CCC/C(C)=C/CC/C(C)=C/CSC[C@H](NS(=O)(=O)c1ccc([N+](=O)[O-])cc1)C(=O)O`: in test [1], the inhibition was more than 55%.

In turn, `CC(C)=CCC/C(C)=C/CC/C(C)=C/CSC[C@H](NS(=O)(=O)c1ccc(Cl)cc1)C(=O)O` gave an inhibition in test [1] of 45%. Turning to `CC(C)=CCC/C(C)=C/CC/C(C)=C/CSC[C@H](NS(=O)(=O)c1ccccc1Oc1ccccc1)C(=O)O`, the inhibition in test [1] worked out at 55%. The compound also displayed an IC50 in test [2] of 18.4 µM. In the case of `CC(C)=CCC/C(C)=C/CC/C(C)=C/CSC[C@H](NS(=O)(=O)c1c(F)c(F)c(F)c(F)c1F)C(=O)O`, the inhibition in test [1] is less than 45%.

On to `CC(C)=CCC/C(C)=C/CC/C(C)=C/CSC[C@H](NS(=O)(=O)c1ccc(C)cc1)C(=O)O`, for which the inhibition in test [1] is less than 45%.
